# Experimental data: US20080267948A1, “Croos-B Structure Binding Compounds” (priority 2005, published 2008)
# “Also recorded” adds a separate entry of the source.
# Columns and labels:
# human blood platelets = test: Platelet aggregation (aggregometric assay with washed platelets); format: cell-based
# Procedure: The influence of amyloid-β(1-40) E22Q Dutch type (Aβ) peptide aggregates with cross-β structure conformation on blood platelet aggregation was tested with washed platelets in an aggregometric assay. Freshly drawn human aspirin free blood was mixed gently with citrate buffer to avoid coagulation. Blood was spinned for 15′ at 150*g at 20° C. and supernatant was collected; platelet rich plasma (PRP). […] After spinning down the platelets upon centrifugation for 15′ at 330*g at 20° C., the pellet was resuspended in HEPES-Tyrode buffer pH 6.5. Prostacyclin was added to a final concentration of 10 ng/ml, and the solution was centrifuged for 15′ at 330*g at 20° C., with a soft brake. The pellet was resuspended in HEPES-Tyrode buffer pH 7.2 in a way that the final platelet number was adjusted to 200,000/μl. Platelets were kept at 37° C. for at least 30′, before use in the assays, to ensure that they were in the resting state.
# Aggregation of platelets was monitored in an aggregometer (Chrono-Log Corporation, Havertown, Pa., USA) for 15 minutes at 37° C. with a magnet stirring speed of 900 rpm. First, 270 μl of platelet solution was pipetted in the cuvettes and after 1 minute of stirring, 30 μl of preincubated (5 minutes, RT) Aβ and Hematein solution or control was added. The hematein stock was 10 mg/ml in HEPES-Tyrode buffer. The Aβ stock was 1 mg/ml. For blank readings unstirred HEPES Tyrode buffer was used. The aggregation is expressed as the percentage of the light transmission (0-100%). As a positive control, synthetic thrombin receptor activating peptide (TRAP) induced platelet aggregation was used. A control experiment was performed to study the influence of the red colour of hematein on the light transmission. For this, 4 μM TRAP was added at time 1 minute to the platelets, then hematein was added after 6 minutes of aggregation. The platelets were used for not more than 4 hours after isolation to reduce variations in sensitivity amongst subsequent measurements.
# Ellagic acid was first dissolved to 100 mg/ml in DMSO, and then further diluted to 1 mg/ml in HBS buffer. Final concentrations of Aβ and ellagic acid in the aggregation assay were 50 μg/ml and 25/50 μg/ml, respectively. In addition, the influence of ellagic acid alone on platelet aggregation was tested. As a control, the influence of 0.08% DMSO on 50 μg/ml Aβ-induced platelet aggregation was analyzed. The 100% DMSO of the ellagic acid stock was diluted 2000 and 4000×, resulting in […] final DMSO concentrations in the aggregation assay.
# tPA = tPA (Homo sapiens, UniProt P00750); test: tPA serine protease activity with OVA heated in the presence of compounds (substrate S-2765); format: biochemical; set-up: purchased Boehringer Ingelheim Actilyse; settings: OVA heated with 1 mg/ml compound, 80-, 160- or 320-fold diluted, 100 nM tPA
# Procedure: For this purpose, the influence of the compounds on heat-denaturation of OVA was analyzed (see above: Thioflavin T fluorescence measurements). Heated OVA at 1 mg/ml in PBS in the presence or absence of 1 mg/ml of the twelve compounds listed in Table 7 in PBS/DMSO (final DMSO concentration 1%) was used 80-fold or 160-fold or 320-fold diluted (final heated OVA concentration and compound concentration was 12.5 or 6.3 or 3.1 μg/ml; final DMSO concentration was 0.013% and 0.006% and 0.003%).
# Hb-AGE = biological target: T1, Hb-AGE (Homo sapiens, UniProt P68871+P69905); test: ELISA binding of tPA to immobilized Hb-AGE after pre-incubation with compounds; settings: Hb-AGE first overlayed with compound (concentration series), then tPA
# T1 construct: purchased Sigma-Aldrich H7379
# Procedure: Compounds were now diluted 10× in PBS/0.1% Tween20 (500 μg/ml compound). […] With the selection, similar binding assays are performed with misfolded OVA and Aβ. Finally, concentration series of the selected compounds are used in the binding studies.
# ovalbumin = biological target: T2, ovalbumin (Gallus gallus, UniProt P01012); test: Transmission electron microscopy of ovalbumin heated in the presence of small compounds; set-up: species or system chicken; settings: 1 mg/ml ovalbumin heated with 1 mg/ml compound
# T2 construct: purchased Sigma A5503
# T2 sequence (P01012 1-386): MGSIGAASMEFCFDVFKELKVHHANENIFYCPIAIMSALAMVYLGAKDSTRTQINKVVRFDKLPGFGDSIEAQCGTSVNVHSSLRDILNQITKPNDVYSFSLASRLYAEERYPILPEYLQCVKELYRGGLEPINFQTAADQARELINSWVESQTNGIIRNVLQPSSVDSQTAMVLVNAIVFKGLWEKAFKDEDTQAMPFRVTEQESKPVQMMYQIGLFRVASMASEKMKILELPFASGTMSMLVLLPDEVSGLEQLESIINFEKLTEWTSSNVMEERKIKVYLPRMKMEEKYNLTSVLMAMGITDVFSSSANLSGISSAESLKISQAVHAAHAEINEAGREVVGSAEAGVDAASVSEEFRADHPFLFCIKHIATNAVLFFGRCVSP
# Procedure: For TEM analyses grids were prepared according to standard procedures. Ovalbumin samples at 1 mg/ml were applied to 100-mesh copper grids with carbon coated Formvar (Merck, Germany), and subsequently washed with PBS and H2O. Grids were applied to droplets of 2% (m/v) methylcellulose with 0.4% (m/v) uranylacetate pH 4. After a 2-minutes incubation grids were dried on a filter. Images were recorded at 80 kV, at suitable magnifications on a JEM-1200EX electron microscope (JEOL, Japan).
# heat-denatured ovalbumin = biological target: T3, heat-denatured ovalbumin (Gallus gallus, UniProt P01012); test: Thioflavin T fluorescence of ovalbumin and small compounds; set-up: species or system chicken; settings: 1 mg/ml compound, 1 mg/ml OVA
# T3 construct: purchased Sigma A5503
# T3 sequence (P01012 1-386): T2 sequence (P01012 1-386)
# Procedure: To establish the enhancement of Thioflavin T fluorescence by ovalbumin preparations, 90 μl of 25 μM ThT-solution in 50 mM Glycine buffer (pH 9.0) was added to 10 μl sample in duplicate wells of black 96-wells plates. Heat-denatured ovalbumin at 1 mg/ml in PBS with no addition, DMSO at a final concentration of 1% v/v, or 1 mg/ml of the compounds listed in Table 7, was used. Compound stocks are 100 mg/ml in DMSO. In addition, ovalbumin at 1 mg/ml with the same additions was first heat denatured and subsequently used in the fluorescence assay. Heat denaturation was according to the protocol given above. Fluorescence of duplicates was measured on a Thermo Fluoroskan Ascent 2.5, at 435 nm excitation and 485 nm emission wavelengths.
# tPA/plasminogen [1] = biological target: T4, tPA/plasminogen (Homo sapiens, UniProt P00750); test: tPA/plasminogen activation by OVA heated in the presence of compounds (substrate PNAPEP1751); format: biochemical; settings: 25 μg/ml OVA, 25 μg/ml compound, […] DMSO
# T4 construct: purchased Boehringer Ingelheim Actilyse
# Procedure: Heated OVA, either in PBS/1% DMSO (positive control), or in the same buffer in the presence of 1 mg/ml of the compounds, was used 40-fold diluted in the assay. Negative control was buffer without OVA. […] In addition, it was assessed whether the compounds interfere with absorbance readings at 405 nm, with converted chromogenic substrate. […] The yellow solution is divided over wells of an ELISA plate. […] Signals are compared and related to the control.
# amyloid-β(1-40) E22Q = biological target: T5, amyloid-β(1-40) E22Q (Homo sapiens, UniProt P05067, E693Q); test: ELISA binding of tPA to immobilized Aβ after pre-incubation with compounds; settings: Aβ first overlayed with compound (concentration series), then tPA
# T5 construct: For similar ELISA's with DOVA and Aβ(1-40) E22Q, 1 μg/ml DOVA or Aβ was coated; purchased Peptide facility, Dutch Cancer Institute, Amsterdam; host or cells: synthetic peptide
# Procedure: Compounds were now diluted 10× in PBS/0.1% Tween20 (500 μg/ml compound). […] With this approach a further selection of the compounds was achieved. Now, compounds that at least interact with HB-AGE are selected. With the selection, similar binding assays are performed with misfolded OVA and Aβ. Finally, concentration series of the selected compounds are used in the binding studies.
# tPA/plasminogen [2] = biological target: T4, tPA/plasminogen; test: tPA/plasminogen activation by pre-formed misfolded OVA in the presence of compounds; format: biochemical; settings: 80-fold or 160-fold diluted compound and misfolded OVA stocks of 1 mg/ml
# Procedure: […] Negative control was buffer without OVA. […] In addition, it was assessed whether the compounds interfere with absorbance readings at 405 nm, with converted chromogenic substrate. […] The yellow solution is divided over wells of an ELISA plate. […] Signals are compared and related to the control.
# T4 sequence (P00750 36-562): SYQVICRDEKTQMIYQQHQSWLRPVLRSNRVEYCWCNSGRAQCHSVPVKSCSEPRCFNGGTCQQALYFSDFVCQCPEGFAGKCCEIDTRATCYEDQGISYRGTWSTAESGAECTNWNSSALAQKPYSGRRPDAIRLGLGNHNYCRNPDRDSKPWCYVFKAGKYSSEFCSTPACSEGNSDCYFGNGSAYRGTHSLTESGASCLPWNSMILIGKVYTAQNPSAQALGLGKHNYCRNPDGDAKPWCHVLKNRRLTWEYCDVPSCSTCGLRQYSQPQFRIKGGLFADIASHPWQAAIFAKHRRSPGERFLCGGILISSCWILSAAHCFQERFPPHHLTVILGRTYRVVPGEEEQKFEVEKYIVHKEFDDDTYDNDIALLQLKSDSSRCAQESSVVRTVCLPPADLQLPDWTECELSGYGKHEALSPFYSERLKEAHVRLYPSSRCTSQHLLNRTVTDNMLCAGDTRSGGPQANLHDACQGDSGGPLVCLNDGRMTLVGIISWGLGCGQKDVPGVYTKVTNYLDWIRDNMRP
# T1 sequence (P69905 2-142 limits assumed): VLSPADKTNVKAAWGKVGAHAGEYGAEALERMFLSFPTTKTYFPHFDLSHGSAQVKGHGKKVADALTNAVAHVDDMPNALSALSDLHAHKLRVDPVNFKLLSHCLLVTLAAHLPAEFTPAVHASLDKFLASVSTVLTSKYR
# T1 sequence (P68871 2-147 limits assumed): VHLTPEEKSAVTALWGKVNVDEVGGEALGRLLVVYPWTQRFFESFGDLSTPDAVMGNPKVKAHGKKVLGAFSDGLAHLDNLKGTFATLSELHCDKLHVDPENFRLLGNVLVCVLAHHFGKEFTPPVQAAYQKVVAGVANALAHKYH
# T5 sequence (P05067 672-711 E693Q): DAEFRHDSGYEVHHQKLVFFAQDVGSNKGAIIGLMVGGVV
# tPA, sequence (P00750 36-562): as the sequence (P00750 36-562) above
structure (smiles),measurement,setting,value
"O=C1C=C2CC3(O)COc4c(ccc(O)c4O)C3=C2C=C1O (stereo not shown) [compound 152, Hematein]",influence on Aβ induced platelet aggregation,human blood platelets; 100 μg/ml Aβ and 333 μg/ml haematein added together,almost completely blocked; also recorded: potent inhibitor of misfolded Aβ-induced platelet aggregation; also recorded: Inhibition of Aβ-induced platelet aggregation
same,reduction of TRAP-induced platelet aggregation,human blood platelets; TRAP and haematein pre-mixed,approximately 10%
same,influence on tPA protease activity of OVA heated in the presence of compound,tPA,Potentiation of tPA protease activity
same,influence on tPA binding to immobilized Hb-AGE,Hb-AGE,Inhibited tPA binding to immobilized misfolded protein (Hb-
same,appearance of ovalbumin heated in the presence of compound on TEM image,ovalbumin; listed as Haematein,No large aggregates. Small aggregates at a lower
same,appearance of ovalbumin heated in the presence of compound on TEM image,ovalbumin; listed as haematein,less OVA aggregates after heating in the presence of the
same,influence on Thioflavin T fluorescence with misfolded OVA,heat-denatured ovalbumin,Inhibition on Thioflavin T fluorescence with misfolded OVA
same,influence on tPA/plasminogen activation by OVA pre-heated in the presence of compound,tPA/plasminogen [1],Inhibition of tPA/plasminogen activation by OVA pre-heated
same,influence on tPA binding to immobilized Aβ,amyloid-β(1-40) E22Q,"Stimulated tPA binding to immobilized misfolded protein (Aβ,"
same,influence on tPA/plasminogen activation by pre-formed misfolded OVA,tPA/plasminogen [2],Full block of tPA/plasminogen activation by misfolded OVA
